Test system: SARS-CoV-2 variant D614G
Format: cell-based

Substance: ACE2-Fc
- inhibition of infection by SARS-CoV-2 variant D614G: inhibited infection

Source: patent US11518788B2, “Methods and compositions for treating and preventing viral infection” (priority 2020, dated 2022)
